# pIC50: −log10 of the molar value.
# Target: HLA-DR15 (DRB1*1501) (Homo sapiens, UniProt P01903+P01911)
# Experiment: biochemical
# Format: binding
structure (smiles),measurement,value
CC(C)C[C@H](NC(=O)[C@H](Cc1ccc(O)cc1)NC(=O)[C@H](C)NC(=O)[C@H](CCCNC(=N)N)NC(=O)[C@H](CC(C)C)NC(=O)[C@H](CCC(N)=O)NC(=O)[C@H](CCC(=O)O)NC(=O)[C@H](C)NC(=O)[C@@H](N)CCC(=O)O)C(=O)N[C@@H](CC(=O)O)C(=O)NCC(=O)N[C@H](C(=O)NCC(=O)N[C@H](C(=O)N[C@@H](CCC(=O)O)C(=O)O)C(C)C)[C@@H](C)O [A3 152–166],pIC50,7.74
